The results in this text go back to patent publication US20230061736A1, “GPR119 AGONISTS” (Kallyope, Inc., priority 2019, published 2023).

SMILES strings stand for the structures.

The test deals with T1, human GPR119 (hGPR119) (Homo sapiens, UniProt Q8TDV5).
T1 construct: expressed in transfected cells
T1 sequence (Q8TDV5 1-335): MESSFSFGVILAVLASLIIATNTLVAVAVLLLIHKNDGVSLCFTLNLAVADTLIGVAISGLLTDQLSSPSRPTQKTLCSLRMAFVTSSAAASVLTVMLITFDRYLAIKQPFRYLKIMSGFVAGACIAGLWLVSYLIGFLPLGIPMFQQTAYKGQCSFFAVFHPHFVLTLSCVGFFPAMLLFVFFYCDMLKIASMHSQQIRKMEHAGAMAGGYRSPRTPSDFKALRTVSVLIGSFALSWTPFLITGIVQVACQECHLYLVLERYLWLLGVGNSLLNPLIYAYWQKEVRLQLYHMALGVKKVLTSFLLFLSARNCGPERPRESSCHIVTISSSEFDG
Briefly: cAMP accumulation assay (cAMP Gs dynamic HTRF kit). The note with it: CHO-K1 cells stably expressing hGPR119, 4-parameter fit; for Emax: 1 h, % activity normalized to Max/Min controls; for EC50: cAMP accumulation. It counts as cell-based. In short, it runs like this: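 CHO-K1 cells stably expressing hGPR119, used as assay-ready frozen stocks at ~10,000 cells/well, exposed to compound dose-response in stimulation buffer with Tween 80 for 60 min at 37° C. cAMP read by HTRF (665/620 nm ratio), normalised to Max/Min controls; EC50 and Max activity from 4-parameter fit.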
Background: Cyclic AMP is a second messenger, typically raised through Gs and lowered through Gi signalling.

Take `O=C(Cc1ccc(OCCCC2CC3(CCN(c4ncc(Cl)cn4)CC3)C2)cc1F)N1CC(CNC[C@H](O)[C@@H](O)[C@H](O)[C@H](O)CO)C1` [Example 105, 2-[4-[3-[7-(5-chloropyrimidin-2-yl)-7-azaspiro[3.5]nonan-2-yl]propoxy]-2-fluoro-phenyl]-1-[3-[[[(2S,3R,4R,5R)-2,3,4,5,6-pentahydroxyhexyl]amino]methyl]azetidin-1-yl]ethanone]: the Emax (in general, the greatest response seen or fitted, relative to the assay's reference) is 100 to 130% and the EC50 (commonly the concentration giving half of the maximal effect) was no more than 100 nM.

The compound `COCC1(CNC[C@H](O)[C@@H](O)[C@H](O)[C@H](O)CO)CCN(C(=O)Cc2ccc(OCCCC3CCN(c4ncc(Cl)cn4)CC3)cc2F)C1` (stereo partly drawn) [Example 121, 2-[4-[3-[1-(5-chloropyrimidin-2-yl)-4-piperidyl]propoxy]-2-fluoro-phenyl]-1-[3-(methoxymethyl)-3-[[[r(2S,3R,4R,5R)-2,3,4,5,6-pentahydroxyhexyl]amino]methyl]pyrrolidin-1-yl]ethanone] gave an Emax of 100 to 130% and an EC50 of no more than 100 nM.

Turning to `O=C(Cc1ccc(OCCCC2CCN(c3ncc(Cl)cn3)CC2)cc1F)NCCCC(=O)NC(CO)CO` [Example 21, 4-[[2-[4-[3-[1-(5-chloropyrimidin-2-yl)-4-piperidyl]propoxy]-2-fluoro-phenyl]acetyl]amino]-N-[2-hydroxy-1-(hydroxymethyl)ethyl]butanamide], the Emax is no less than 130% and the EC50 fell in the range of 100 to 1000 nM.

`O=C(Cc1ccc(OCCCC2CCN(c3ncc(Cl)cn3)CC2)cn1)N1CC(CNC[C@H](O)[C@@H](O)[C@H](O)[C@H](O)CO)C1` [Example 169, 2-[5-[3-[1-(5-chloropyrimidin-2-yl)-4-piperidyl]propoxy]-2-pyridyl]-1-[3-[[[(2S,3R,4R,5R)-2,3,4,5,6-pentahydroxyhexyl]amino]methyl]azetidin-1-yl]ethanone] returned an Emax of 100 to 130% and an EC50 of 1000 to 10000 nM.

The compound `COc1cnc(N2CCC(CCCOc3ccc(CC(=O)N4CC(CNC[C@H](O)[C@@H](O)[C@H](O)[C@H](O)CO)C4)c(F)c3)CC2)nc1` (racemic) [Example 79, 2-[2-fluoro-4-[3-[1-(5-methoxypyrimidin-2-yl)-4-piperidyl]propoxy]phenyl]-1-[3-[[[rac-(2S,3R,4R,5R)-2,3,4,5,6-pentahydroxyhexyl]amino]methyl]azetidin-1-yl]ethanone] came in with an Emax of 100 to 130% and an EC50 of 100 to 1000 nM.

`O=C(NC(CO)(CO)CO)[C@H]1CCN(C(=O)Cc2ccc(OCCCC3CCN(c4ncc(Cl)cn4)CC3)cc2F)C1` [Example 103, (3S)-1-[2-[4-[3-[1-(5-chloropyrimidin-2-yl)-4-piperidyl]propoxy]-2-fluoro-phenyl]acetyl]-N-[2-hydroxy-1,1-bis(hydroxymethyl)ethyl]pyrrolidine-3-carboxamide] registered an Emax of 100 to 130% and an EC50 of no more than 100 nM.

`O=C(Cc1c(F)cc(OCCCC2CCN(c3ncc(Cl)cn3)CC2)cc1F)N1CC(CNC[C@H](O)[C@@H](O)[C@H](O)[C@H](O)CO)C1` [Example 53, 2-[4-[3-[1-(5-chloropyrimidin-2-yl)-4-piperidyl]propoxy]-2,6-difluoro-phenyl]-1-[3-[[[(2S,3R,4R,5R)-2,3,4,5,6-pentahydroxyhexyl]amino]methyl]azetidin-1-yl]ethanone] displayed an Emax of no less than 130% and an EC50 of no more than 100 nM.

In turn, `CCc1cnc(N2CCC(CCCOc3ccc(CC(=O)N4CC(CNCC(CO)CO)C4)c(F)c3)CC2)nc1` [Example 62, 2-(4-(3-(1-(5-ethylpyrimidin-2-yl)piperidin-4-yl)propoxy)-2-fluorophenyl)-1-(3-(((3-hydroxy-2-(hydroxymethyl)propyl)amino)methyl)azetidin-1-yl)ethan-1-one] had an Emax of no less than 130% and an EC50 of 100 to 1000 nM.
